# Patent US20140323300A1, “HERBICIDAL COMPOUNDS” (SYNGENTA LIMITED, priority 2011, published 2014)
# What was measured:
# Assay type in all cases: in vivo
# [1] = system: Ipomoea hederacea (IPOHE); test: Pre-emergence glasshouse herbicide test; details: pre-emergence (sprayed after one day cultivation), 1000 g/h, evaluated after 13 days, five point scale
# Summary of the method: (§1)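 Damage was rated 13 days after treatment on a five-point scale (1 = 0–19%, 5 = 80–100%). The compound, formulated in 50:50 acetone/water with 0.5% Tween 20, was sprayed at 1000 g/h on pots one day (pre) or 8 days (post) after sowing, kept in a glasshouse at 24/16° C, 14 h light, 65% humidity.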
# Setaria faberi (SETFA) [2] = test: Pre-emergence glasshouse herbicide test; details: pre-emergence (sprayed after one day cultivation), 1000 g/h, evaluated after 13 days, five point scale
# Summary of the method: as §1
# Solanum nigrum (SOLNI) [3] = test: Pre-emergence glasshouse herbicide test; details: pre-emergence (sprayed after one day cultivation), 1000 g/h, evaluated after 13 days, five point scale
# Summary of the method: as §1
# [4] = system: Echinochloa crus-galli (ECHCG); test: Pre-emergence glasshouse herbicide test; details: pre-emergence (sprayed after one day cultivation), 1000 g/h, evaluated after 13 days, five point scale
# Summary of the method: as §1
# [5] = system: Amaranthus retoflexus (AMARE); test: Pre-emergence glasshouse herbicide test; details: pre-emergence (sprayed after one day cultivation), 1000 g/h, evaluated after 13 days, five point scale
# Summary of the method: as §1
# [6] = system: Alopecurus myosuroides (ALOMY); test: Pre-emergence glasshouse herbicide test; details: pre-emergence (sprayed after one day cultivation), 1000 g/h, evaluated after 13 days, five point scale
# Summary of the method: as §1
# [7] = system: Ipomoea hederacea (IPOHE); test: Post-emergence glasshouse herbicide test; details: post-emergence (sprayed after 8 days cultivation), 1000 g/h, evaluated after 13 days, five point scale
# Summary of the method: as §1
# Setaria faberi (SETFA) [8] = test: Post-emergence glasshouse herbicide test; details: post-emergence (sprayed after 8 days cultivation), 1000 g/h, evaluated after 13 days, five point scale
# Summary of the method: as §1
# Solanum nigrum (SOLNI) [9] = test: Post-emergence glasshouse herbicide test; details: post-emergence (sprayed after 8 days cultivation), 1000 g/h, evaluated after 13 days, five point scale
# Summary of the method: as §1
# [10] = system: Echinochloa crus-galli (ECHCG); test: Post-emergence glasshouse herbicide test; details: post-emergence (sprayed after 8 days cultivation), 1000 g/h, evaluated after 13 days, five point scale
# Summary of the method: as §1
# [11] = system: Amaranthus retoflexus (AMARE); test: Post-emergence glasshouse herbicide test; details: post-emergence (sprayed after 8 days cultivation), 1000 g/h, evaluated after 13 days, five point scale
# Summary of the method: as §1
# [12] = system: Alopecurus myosuroides (ALOMY); test: Post-emergence glasshouse herbicide test; details: post-emergence (sprayed after 8 days cultivation), 1000 g/h, evaluated after 13 days, five point scale
# Summary of the method: as §1
Compound,"percentage damage caused to the plant, PRE Application IPOHE [1]","percentage damage caused to the plant, PRE Application SETFA (Setaria faberi (SETFA) [2])","percentage damage caused to the plant, PRE Application SOLNI (Solanum nigrum (SOLNI) [3])","percentage damage caused to the plant, PRE Application ECHCG [4]","percentage damage caused to the plant, PRE Application AMARE [5]","percentage damage caused to the plant, PRE Application ALOMY [6]","percentage damage caused to the plant, POST Application IPOHE [7]","percentage damage caused to the plant, POST Application SETFA (Setaria faberi (SETFA) [8])","percentage damage caused to the plant, POST Application SOLNI (Solanum nigrum (SOLNI) [9])","percentage damage caused to the plant, POST Application ECHCG [10]","percentage damage caused to the plant, POST Application AMARE [11]","percentage damage caused to the plant, POST Application ALOMY [12]"
O=c1c(O)c(Cl)cnn1-c1ccc(C(F)(F)F)cc1C(F)(F)F [Compound 1.015],4 (4=60-79%),1 (1=0-19%),5 (5=80-100%),2 (2=20-39%),5 (5=80-100%),1 (1=0-19%),5 (5=80-100%),5 (5=80-100%),5 (5=80-100%),5 (5=80-100%),5 (5=80-100%),5 (5=80-100%)
"Cc1cnn(-c2ccc(S(C)(=O)=O)c(C3=NOCC3)c2C)c(=O)c1O [Compound 1.016, 2-[3-(4,5-dihydroisoxazol-3-yl)-2-methyl-4-methylsulfonyl-phenyl]-4-hydroxy-5-methyl-pyridazin-3-one]",4 (4=60-79%),5 (5=80-100%),5 (5=80-100%),5 (5=80-100%),5 (5=80-100%),5 (5=80-100%),5 (5=80-100%),5 (5=80-100%),5 (5=80-100%),5 (5=80-100%),5 (5=80-100%),5 (5=80-100%)
Cc1c(-n2ncc(Br)c(O)c2=O)ccc(S(C)(=O)=O)c1C1=NOCC1 [Compound 1.013],4 (4=60-79%),5 (5=80-100%),5 (5=80-100%),5 (5=80-100%),5 (5=80-100%),4 (4=60-79%),5 (5=80-100%),5 (5=80-100%),5 (5=80-100%),5 (5=80-100%),5 (5=80-100%),5 (5=80-100%)
CSc1cnn(-c2ccc(C(F)(F)F)nc2C)c(=O)c1O [Compound 1.025],5 (5=80-100%),5 (5=80-100%),5 (5=80-100%),5 (5=80-100%),5 (5=80-100%),2 (2=20-39%),5 (5=80-100%),5 (5=80-100%),5 (5=80-100%),5 (5=80-100%),5 (5=80-100%),2 (2=20-39%)
Cc1cnn(-c2ccc(C(F)(F)F)nc2C)c(=O)c1O [Compound 1.020],5 (5=80-100%),5 (5=80-100%),5 (5=80-100%),5 (5=80-100%),5 (5=80-100%),3 (3=40-59%),5 (5=80-100%),5 (5=80-100%),5 (5=80-100%),5 (5=80-100%),5 (5=80-100%),3 (3=40-59%)
Cc1c(-n2nccc(O)c2=O)ccc(S(C)(=O)=O)c1C1=NOCC1 [Compound 1.008],5 (5=80-100%),5 (5=80-100%),5 (5=80-100%),5 (5=80-100%),5 (5=80-100%),2 (2=20-39%),5 (5=80-100%),5 (5=80-100%),5 (5=80-100%),5 (5=80-100%),5 (5=80-100%),5 (5=80-100%)
CS(=O)(=O)c1cc(C(F)(F)F)ccc1-n1ncc(C2CC2)c(O)c1=O [Compound 1.031],5 (5=80-100%),5 (5=80-100%),5 (5=80-100%),5 (5=80-100%),5 (5=80-100%),5 (5=80-100%),5 (5=80-100%),5 (5=80-100%),5 (5=80-100%),5 (5=80-100%),5 (5=80-100%),5 (5=80-100%)
